Data on one compound can be found in patent publication US10736873B2, “Medical uses of N-(2-aminoethyl)-N-(4-benzyloxy)-3-methoxybenzyl)thiophene-2-formamide hydrochloride” (The Second Xiangya Hospital, Central South University, priority 2017, dated 2020).

Test [1] has as its system Scid-HepG2-subcutaneous tumor. As to the kind of experiment: Scid-HepG2 subcutaneous tumor model in NOD/SCID nude mice. In kind it is in vivo. To be noted: for Relative volume of Scid-HepG2-subcutaneous tumor: 2 mg/kg i.p. 1 time/day. The protocol: (§1) Using the hepatoma cell line HepG2, 5×10^6 cells were injected into the right flank of each NOD/SCID nude mouse (10 in total) respectively. When the tumor grows to a volume of about 80 mm^3, the mice were randomly divided into control group and therapeutic intervention group, with 5 mice in each group. Therapeutic Intervention Group: M8-B hydrochloride was dissolved in DMSO to form an injectable medication, intraperitoneally injected, at a dose of 2 mg/kg (wherein 2 mg was the mass of M8-B hydrochloride), 1 time/day. Control Group: The blank solvent DMSO was intraperitoneally injected, at a dose of 2 mg/kg, 1 time/day. Tumor size was measured by volume=½×length×width^2, and the mice were sacrificed at week 10 to compare survival rate and tumor volume. The experimental results of this example are as follows: Tumor size was measured by volume=½×length×width^2, and mice were sacrificed at week 10 to compare survival rate and tumor volume. The experimental results of this example are as follows: In Table 1, DMSO represents the relative volume of Scid-HepG2-subcutaneous tumor in the control group of blank solvent, M8-B represents the relative volume of Scid-HepG2-subcutaneous tumor in the therapeutic intervention group, and P value represents the difference between the relative volumes of Scid-HepG2-subcutaneous tumors in the control group and therapeutic intervention group. The tumor size on the first day of administration is 100%.

Test [2] concerns Scid-Huh7-subcutaneous tumor. Nature of the test: Scid-Huh7 subcutaneous tumor model in NOD/SCID nude mice. In kind it is in vivo. The note with it: for Relative volume of Scid-Huh7-subcutaneous tumor: 2 mg/kg i.p. 1 time/day. The protocol: as §1, with “Huh7,” for “HepG2,”, “6” for “10 to compare survival rate and tumor volume. The experimental results of this example are as follows: Tumor size was measured by volume=½×length×width^2, and mice were sacrificed at week 10”, “2,” for “1,”, “Scid-Huh7-subcutaneous” for “Scid-HepG2-subcutaneous”

The mark [3] stands for this setting: week 0, tumor size on first day of administration = 100%.
The mark [4] stands for this setting: week 1, first day of administration = 100%.
[5] abbreviates: week 2, first day of administration = 100%.
The mark [6] stands for this setting: week 3, first day of administration = 100%.
The mark [7] stands for this setting: week 4, first day of administration = 100%.
Setting [8] is: week 5, first day of administration = 100%.
Setting [9] is: week 6, first day of administration = 100%.

Regarding `COc1cc(CN(CCN)C(=O)c2cccs2)ccc1OCc1ccccc1.Cl` [M8B], the “changes of tumor volume in mice (HepG2 tumors)” value in test [1] (versus DMSO control, results of table 1) is given as “significantly slower”. For the same compound, the “Relative volume of Scid-HepG2-subcutaneous tumor” value in test [1] (setting [3]) amounted to 100.00%; in test [1] (setting [4]), 151.94%; in test [1] (setting [5]) it was 212.44%; in test [1] (setting [6]), 273.9%; in test [1] (setting [7]), 349.0%; in test [1] (setting [8]), 416.66%. Further, the “Relative volume of Scid-HepG2-subcutaneous tumor” value in test [1] (setting [9]) is given as 479.2%; in test [1] (week 7, first day of administration = 100%), 590.68%; in test [1] (week 8, first day of administration = 100%), 1108.50%; in test [1] (week 9, first day of administration = 100%), 700.92%; in test [1] (week 10, first day of administration = 100%), 734.87%. In addition, the “changes of tumor volume in mice (HuH7 tumors)” value in test [2] (versus DMSO control, results of table 2) is “significantly slower”. In addition, the “Relative volume of Scid-Huh7-subcutaneous tumor” value in test [2] (setting [3]) was 100.00%; in test [2] (setting [4]), 143.85%; in test [2] (setting [5]), 205.0%; in test [2] (setting [6]), 381.41%; in test [2] (setting [7]) it was 484.0%; in test [2] (setting [8]), 789.89%. For the same compound, the “Relative volume of Scid-Huh7-subcutaneous tumor” value in test [2] (setting [9]) is listed as 928.01%.
